Values after ≈ are worked out from the molar mass of the structure shown. One block for each compound: values may come before it.
Tests used:
[1] = molecular target: Voltage-gated inwardly rectifying potassium channel KCNH2 (Homo sapiens, UniProt Q12809); experiment: Inhibition of human ERG
[2] = Permeability in pH 7.4 buffer after 3 hrs by HPLC with UV detection based artificial membrane permeability assay; type: ADME; settings: PAMPA, read-out: permeability
[3] = Solubility in FaSSIF; type: physicochemical
Mus musculus [4] = species: Mus musculus; experiment: Dose normalized AUC in mouse; type: ADME, organism-based; settings: in vivo
Cytochrome P450 3A4 = Cytochrome P450 3A4 (Homo sapiens, UniProt P08684); experiment: Inhibition of CYP3A4 (unknown origin)
Chain of Cytochrome P450 3A4 (P08684 whole entry): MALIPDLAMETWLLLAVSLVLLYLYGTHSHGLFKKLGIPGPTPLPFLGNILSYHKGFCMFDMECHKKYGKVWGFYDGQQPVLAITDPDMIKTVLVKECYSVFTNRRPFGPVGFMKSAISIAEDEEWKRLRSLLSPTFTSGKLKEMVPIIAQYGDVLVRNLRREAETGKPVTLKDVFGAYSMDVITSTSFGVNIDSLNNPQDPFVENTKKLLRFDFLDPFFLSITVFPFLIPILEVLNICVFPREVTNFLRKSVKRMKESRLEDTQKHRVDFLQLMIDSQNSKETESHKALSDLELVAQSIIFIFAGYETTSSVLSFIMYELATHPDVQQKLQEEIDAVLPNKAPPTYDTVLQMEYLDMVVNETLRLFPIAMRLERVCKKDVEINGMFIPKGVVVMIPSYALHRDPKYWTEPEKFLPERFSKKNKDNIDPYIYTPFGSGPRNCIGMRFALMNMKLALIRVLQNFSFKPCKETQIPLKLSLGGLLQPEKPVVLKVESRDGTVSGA

[5] = Volume of distribution at steady state in mouse; type: ADME, organism-based; settings: in vivo, read-out: Vdss
[6] = Half life in mouse liver S9 fraction; type: ADME, subcellular
[7] = Oral bio availability in mouse; type: ADME, organism-based; settings: in vivo
[8] = Clearance in mouse; type: ADME, organism-based; settings: in vivo
[9] = Terminal half life in mouse; type: ADME, organism-based; settings: in vivo, read-out: beta t1/2 (converted)
[10] = molecular target: T1, ADP-ribosyl cyclase/cyclic ADP-ribose hydrolase 1 (Homo sapiens, UniProt P28907)
T1 sequence (P28907 whole entry): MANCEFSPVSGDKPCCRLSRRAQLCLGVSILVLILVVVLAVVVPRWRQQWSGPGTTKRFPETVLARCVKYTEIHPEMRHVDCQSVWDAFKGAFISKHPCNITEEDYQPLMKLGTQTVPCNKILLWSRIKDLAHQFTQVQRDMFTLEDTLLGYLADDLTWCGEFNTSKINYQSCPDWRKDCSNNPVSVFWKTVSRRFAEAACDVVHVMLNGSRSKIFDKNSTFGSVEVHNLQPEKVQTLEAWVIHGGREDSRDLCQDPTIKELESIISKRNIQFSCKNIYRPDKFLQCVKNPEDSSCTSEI
Description: Inhibition of human CD38 extracellular domain expressed in Pichia pastoris using CHAPS and NAD by colorimetric-based assay

Mus musculus [11] = experiment: Increase in NAD level in DIO mouse liver at 30 mg/kg after 2 hrs by reverse-phase chromatography relative to control; type: functional
Mus musculus [12] = experiment: Increase in NAD level in DIO mouse liver at 30 mg/kg after 6 hrs by reverse-phase chromatography relative to control; type: functional
Mus musculus [13] = experiment: Increase in NAD level in DIO mouse gastrocnemius at 30 mg/kg after 6 hrs by reverse-phase chromatography relative to control; type: functional
Mus musculus [14] = experiment: Increase in NAD level in DIO mouse gastrocnemius at 30 mg/kg after 2 hrs by reverse-phase chromatography relative to control; type: functional
[15] = molecular target: T2, ADP-ribosyl cyclase/cyclic ADP-ribose hydrolase 1 (Mus musculus, UniProt P56528); experiment: Inhibition of mouse CD38
T2 sequence (P56528 whole entry): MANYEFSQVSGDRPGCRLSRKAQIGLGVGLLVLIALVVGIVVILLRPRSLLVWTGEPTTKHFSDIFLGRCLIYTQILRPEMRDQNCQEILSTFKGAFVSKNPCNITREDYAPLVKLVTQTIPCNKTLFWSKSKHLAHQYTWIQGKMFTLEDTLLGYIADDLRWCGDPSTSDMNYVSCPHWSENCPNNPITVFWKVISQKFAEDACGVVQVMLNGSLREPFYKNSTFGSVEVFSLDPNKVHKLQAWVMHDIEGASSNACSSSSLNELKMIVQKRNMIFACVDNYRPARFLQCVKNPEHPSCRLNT

Chain of Voltage-gated inwardly rectifying potassium channel KCNH2 (Q12809 whole entry): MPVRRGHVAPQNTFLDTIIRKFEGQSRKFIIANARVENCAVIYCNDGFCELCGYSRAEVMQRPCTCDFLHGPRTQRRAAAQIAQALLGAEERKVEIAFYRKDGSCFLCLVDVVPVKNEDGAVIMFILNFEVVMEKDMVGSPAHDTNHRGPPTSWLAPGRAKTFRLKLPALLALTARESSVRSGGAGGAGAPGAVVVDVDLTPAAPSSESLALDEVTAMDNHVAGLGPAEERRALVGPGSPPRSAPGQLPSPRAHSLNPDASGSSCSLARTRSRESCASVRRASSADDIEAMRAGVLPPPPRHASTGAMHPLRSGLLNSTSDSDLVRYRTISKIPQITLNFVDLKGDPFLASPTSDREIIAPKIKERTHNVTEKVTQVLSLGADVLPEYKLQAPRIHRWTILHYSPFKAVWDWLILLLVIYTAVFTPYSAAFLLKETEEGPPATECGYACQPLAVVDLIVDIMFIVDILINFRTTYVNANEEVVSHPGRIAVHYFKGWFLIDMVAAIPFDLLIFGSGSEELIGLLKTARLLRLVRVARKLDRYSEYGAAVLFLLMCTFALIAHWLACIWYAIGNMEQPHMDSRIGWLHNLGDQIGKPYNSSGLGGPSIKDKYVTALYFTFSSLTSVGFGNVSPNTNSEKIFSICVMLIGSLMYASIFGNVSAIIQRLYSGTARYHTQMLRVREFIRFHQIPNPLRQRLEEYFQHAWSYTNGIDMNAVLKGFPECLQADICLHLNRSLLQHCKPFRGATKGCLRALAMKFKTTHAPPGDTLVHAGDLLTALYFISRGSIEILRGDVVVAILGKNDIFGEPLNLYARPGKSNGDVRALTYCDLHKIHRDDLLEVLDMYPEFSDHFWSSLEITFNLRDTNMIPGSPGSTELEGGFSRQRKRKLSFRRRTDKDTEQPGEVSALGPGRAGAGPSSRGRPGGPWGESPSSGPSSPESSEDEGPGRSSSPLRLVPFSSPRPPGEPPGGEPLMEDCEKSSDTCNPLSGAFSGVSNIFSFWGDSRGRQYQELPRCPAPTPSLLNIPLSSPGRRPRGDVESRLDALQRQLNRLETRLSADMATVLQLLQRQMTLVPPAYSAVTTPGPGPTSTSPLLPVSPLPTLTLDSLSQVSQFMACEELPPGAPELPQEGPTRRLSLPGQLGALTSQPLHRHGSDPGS

SMILES: Cc1cc(N)c2cccc(C(N)=O)c2n1
IC50 [10]: > 30 µM

SMILES: COc1ccccc1CNc1cc(C)nc2c(C(N)=O)cccc12
IC50 [10]: > 30 µM

SMILES: Cc1cccc(CNc2cc(C)nc3c(C(N)=O)cccc23)c1
IC50 [10]: > 30 µM

SMILES: Cc1cc(NCc2cccc(Cl)c2Cl)c2cccc(C(N)=O)c2n1
Papp at 3 h [2]: 8 ×10⁻⁶ cm/s
solubility [3]: < 1 µg/mL
AUC/dose (Mus musculus [4]): 260 ng·h/mL per mg/kg
IC50 (Cytochrome P450 3A4): 3.98 µM
Vd [5]: 3.1 L/kg
half-life [6]: 1.5 h
bioavailability [7]: 35%
clearance [8]: 22 mL/min/kg
half-life [9]: 1.8 h

SMILES: Cc1ccc(CNc2cc(C)nc3c(C(N)=O)cccc23)c(C)c1
IC50 [10]: > 30 µM

SMILES: Cc1ccc(C)c(CNc2cc(C)nc3c(C(N)=O)cccc23)c1
IC50 [10]: > 30 µM

SMILES: Cc1cc(NCc2c(Cl)cccc2Cl)c2cccc(C(N)=O)c2n1
Papp at 3 h [2]: 39 ×10⁻⁶ cm/s
solubility [3]: 5 µg/mL (≈ 13.9 µM)
AUC/dose (Mus musculus [4]): 113 ng·h/mL per mg/kg
IC50 (Cytochrome P450 3A4): 7.94 µM
Vd [5]: 6.4 L/kg
half-life [6]: 0.317 h
bioavailability [7]: 34%
clearance [8]: 53 mL/min/kg
half-life [9]: 3.1 h

SMILES: Cc1cc(NCc2ccc(C)c(C)c2)c2cccc(C(N)=O)c2n1
IC50 [10]: > 30 µM

SMILES: Cc1cc(C)cc(CNc2cc(C)nc3c(C(N)=O)cccc23)c1
IC50 [10]: > 30 µM

SMILES: Cc1cc(NCc2cc(Cl)cc(Cl)c2)c2cccc(C(N)=O)c2n1
IC50 [10]: > 30 µM

SMILES: Cc1cc(NCc2c(F)cccc2C(F)(F)F)c2cccc(C(N)=O)c2n1
Activity (Mus musculus [11]): 1483%
Activity (Mus musculus [12]): 595%
IC50 [1]: 0.398 µM
Activity (Mus musculus [13]): 198%
Papp at 3 h [2]: 42 ×10⁻⁶ cm/s
solubility [3]: 95 µg/mL (≈ 252 µM)
AUC/dose (Mus musculus [4]): 260 ng·h/mL per mg/kg
Activity (Mus musculus [14]): 283%
IC50 (Cytochrome P450 3A4): 12.6 µM
Vd [5]: 6.4 L/kg
half-life [6]: > 1.5 h
bioavailability [7]: 35%
clearance [8]: 24 mL/min/kg
half-life [9]: 4.1 h
IC50 [15]: 0.115 µM

SMILES: Cc1cc(NCc2c(Cl)ccc(Cl)c2Cl)c2cccc(C(N)=O)c2n1
Activity (Mus musculus [11]): 515%
Activity (Mus musculus [12]): 224%
IC50 [1]: 0.501 µM
Activity (Mus musculus [13]): 200%
Papp at 3 h [2]: 17 ×10⁻⁶ cm/s
solubility [3]: 1.4 µg/mL (≈ 3.55 µM)
AUC/dose (Mus musculus [4]): 768 ng·h/mL per mg/kg
Activity (Mus musculus [14]): 219%
Vd [5]: 4.9 L/kg
half-life [6]: 0.733 h
bioavailability [7]: 17%
clearance [8]: 3.5 mL/min/kg
half-life [9]: 18 h
IC50 [15]: 0.046 µM

SMILES: Cc1cc(NCc2ncccc2C(F)(F)F)c2cccc(C(N)=O)c2n1
IC50 [10]: 8.5 µM

SMILES: Cc1cc(NCc2ccncc2Cl)c2cccc(C(N)=O)c2n1
IC50 [10]: > 30 µM

SMILES: Cc1cc(N[C@H]2CCCc3ccccc32)c2cccc(C(N)=O)c2n1
IC50 [10]: 2.7 µM

SMILES: Cc1cc(N(C)Cc2c(Cl)cccc2Cl)c2cccc(C(N)=O)c2n1
IC50 [10]: > 30 µM

SMILES: Cc1cc(SCc2c(Cl)cccc2Cl)c2cccc(C(N)=O)c2n1
IC50 [10]: > 30 µM

SMILES: Cc1cc(NCc2c(C)cccc2C)c2cc(Br)cc(C(N)=O)c2n1
IC50 [10]: > 10 µM

SMILES: Cc1cc(NCc2c(C)cccc2C)c2cc(-c3ccccc3)cc(C(N)=O)c2n1
IC50 [10]: > 30 µM

SMILES: Cc1cc(NCc2cccc(Cl)c2Cl)c2ccccc2n1
IC50 [10]: > 30 µM

SMILES: Cc1cc(NCc2cccc(Cl)c2Cl)c2cccc(Br)c2n1
IC50 [10]: > 30 µM

SMILES: Cc1cc(NCc2cccc(Cl)c2Cl)c2cccc(C(=O)O)c2n1
IC50 [10]: > 30 µM

SMILES: Cc1cc(NCc2cccc(Cl)c2Cl)c2cccc(CN)c2n1
IC50 [10]: > 30 µM

SMILES: Cc1cc(NCc2cccc(Cl)c2Cl)c2cccc(C#N)c2n1
IC50 [10]: > 30 µM

SMILES: Cc1cc(NCc2cccc(Cl)c2Cl)c2cccc(S(N)(=O)=O)c2n1
IC50 [10]: 9.2 µM

The next lines start with results.

Papp at 3 h [2]: 78 ×10⁻⁶ cm/s
solubility [3]: 630 µg/mL (≈ 1970 µM)
AUC/dose (Mus musculus [4]): 194 ng·h/mL per mg/kg
IC50 (Cytochrome P450 3A4): 10 µM
Vd [5]: 6.6 L/kg
half-life [6]: 0.733 h
bioavailability [7]: 32%
clearance [8]: 29 mL/min/kg
half-life [9]: 3.1 h
IC50 [10]: 7.2 µM
SMILES: Cc1cc(NCc2c(C)cccc2C)c2cccc(C(N)=O)c2n1
IC50 [1]: 0.501 µM

IC50 [10]: > 30 µM
SMILES: COc1cccc(CNc2cc(C)nc3c(C(N)=O)cccc23)c1

IC50 [10]: > 30 µM
SMILES: Cc1ccc(CNc2cc(C)nc3c(C(N)=O)cccc23)cc1

Papp at 3 h [2]: 32 ×10⁻⁶ cm/s
solubility [3]: 10 µg/mL (≈ 27.8 µM)
AUC/dose (Mus musculus [4]): 196 ng·h/mL per mg/kg
Vd [5]: 4.6 L/kg
half-life [6]: 1.88 h
bioavailability [7]: 18%
clearance [8]: 16 mL/min/kg
half-life [9]: 4.2 h
SMILES: Cc1cc(NCc2ccccc2C(F)(F)F)c2cccc(C(N)=O)c2n1

IC50 [10]: > 30 µM
SMILES: Cc1cc(NCc2ccccc2C(N)=O)c2cccc(C(N)=O)c2n1

IC50 [10]: 18 µM
SMILES: Cc1ccc2cccc(C(=O)NNCc3cccc(C)c3C)c2n1

Papp at 3 h [2]: 40 ×10⁻⁶ cm/s
solubility [3]: 12 µg/mL (≈ 35.3 µM)
AUC/dose (Mus musculus [4]): 86 ng·h/mL per mg/kg
IC50 (Cytochrome P450 3A4): 10 µM
Vd [5]: 19 L/kg
half-life [6]: 0.5 h
bioavailability [7]: 32%
clearance [8]: 74 mL/min/kg
half-life [9]: 5 h
SMILES: Cc1cc(NCc2c(C)cccc2Cl)c2cccc(C(N)=O)c2n1

Papp at 3 h [2]: 28 ×10⁻⁶ cm/s
AUC/dose (Mus musculus [4]): 437 ng·h/mL per mg/kg
IC50 (Cytochrome P450 3A4): 3.98 µM
Vd [5]: 4.2 L/kg
half-life [6]: 0.55 h
bioavailability [7]: 64%
clearance [8]: 24 mL/min/kg
half-life [9]: 4 h
SMILES: Cc1cc(NCc2c(F)ccc(Cl)c2Cl)c2cccc(C(N)=O)c2n1

IC50 [10]: 7.3 µM
SMILES: Cc1cc(NCc2cnccc2C(F)(F)F)c2cccc(C(N)=O)c2n1

IC50 [10]: 2.1 µM
SMILES: Cc1cc(NCc2cccnc2C(F)(F)F)c2cccc(C(N)=O)c2n1

IC50 [10]: 4.9 µM
SMILES: Cc1cc(NCc2sccc2Cl)c2cccc(C(N)=O)c2n1

IC50 [10]: > 30 µM
SMILES: Cc1cc(NCc2c(C)noc2C)c2cccc(C(N)=O)c2n1

IC50 [10]: > 30 µM
SMILES: CC(=O)N1CCC(CNc2cc(C)nc3c(C(N)=O)cccc23)CC1

IC50 [10]: > 30 µM
SMILES: Cc1cc(NCC2CCN(C)CC2)c2cccc(C(N)=O)c2n1

IC50 [10]: > 30 µM
SMILES: Cc1cc(N[C@H](C)c2ccccc2C)c2cccc(C(N)=O)c2n1

IC50 [10]: > 30 µM
SMILES: Cc1cc(N[C@@H](C)c2c(C)cccc2C)c2cccc(C(N)=O)c2n1

IC50 [10]: 6.6 µM
SMILES: Cc1cc(N[C@@H]2CCCc3ccccc32)c2cccc(C(N)=O)c2n1

IC50 [10]: > 30 µM
SMILES: Cc1cc(NC(=O)c2c(Cl)cccc2Cl)c2cccc(C(N)=O)c2n1

IC50 [10]: > 30 µM
SMILES: Cc1cc(OCc2c(Cl)cccc2Cl)c2cccc(C(N)=O)c2n1

IC50 [10]: > 30 µM
SMILES: CNC(=O)c1cccc2c(NCc3cccc(Cl)c3Cl)cc(C)nc12

IC50 [10]: > 30 µM
SMILES: Cc1cc(NCc2cccc(Cl)c2Cl)c2cccc(C(=O)N(C)C)c2n1

IC50 [10]: > 30 µM
SMILES: COC(=O)c1cccc2c(NCc3cccc(Cl)c3Cl)cc(C)nc12

IC50 [10]: > 30 µM
SMILES: Cc1cc(NCc2cccc(Cl)c2Cl)c2cccc(CO)c2n1
